{"source": "the OligoGym collection", "target": "HSD17B13", "details": "ASO, HepaRG", "note": "After the bases stand the sugars from the 5' end (letter, count) and the backbone: PS all phosphorothioate, else s phosphorothioate and o phosphodiester by linkage. Methylation of C is not given here. e = 2'-O-(2-methoxyethyl) (MOE); k = constrained ethyl (cEt); d = 2'-deoxy (DNA); m = 2'-O-methyl", "data": [{"sequence": "TGGTAAACTGTATGCC (sugars k3 d10 k3, PS)", "values": [{"measurement": "target mRNA inhibition", "setting": "0.02 µM", "value": 0, "unit": "%"}, {"measurement": "target mRNA inhibition", "setting": "0.078 µM", "value": 3, "unit": "%"}, {"measurement": "target mRNA inhibition", "setting": "0.313 µM", "value": 40, "unit": "%"}, {"measurement": "target mRNA inhibition", "setting": "1 µM", "value": 76, "unit": "%"}, {"measurement": "target mRNA inhibition", "setting": "1.25 µM", "value": 72, "unit": "%"}, {"measurement": "target mRNA inhibition", "setting": "5 µM", "value": 85, "unit": "%"}]}, {"sequence": "TGGTAAGTATTCCATC (sugars k3 d10 k3, PS)", "values": [{"measurement": "target mRNA inhibition", "setting": "1 µM", "value": 26, "unit": "%"}]}, {"sequence": "TGGTAGCTTGCTCACT (sugars k3 d10 k3, PS)", "values": [{"measurement": "target mRNA inhibition", "setting": "0.02 µM", "value": 16, "unit": "%"}, {"measurement": "target mRNA inhibition", "setting": "0.078 µM", "value": 31, "unit": "%"}, {"measurement": "target mRNA inhibition", "setting": "0.313 µM", "value": 48, "unit": "%"}, {"measurement": "target mRNA inhibition", "setting": "1 µM", "value": 71, "unit": "%"}, {"measurement": "target mRNA inhibition", "setting": "1.25 µM", "value": 72, "unit": "%"}, {"measurement": "target mRNA inhibition", "setting": "5 µM", "value": 81, "unit": "%"}]}, {"sequence": "TGGTCTAAAGTGCTGG (sugars k3 d10 k3, PS)", "values": [{"measurement": "target mRNA inhibition", "setting": "1 µM", "value": 61, "unit": "%"}]}, {"sequence": "TGTAAGAGTCAGTATC (sugars k3 d9 k3 e1, PS)", "values": [{"measurement": "target mRNA inhibition", "setting": "1 µM", "value": 46, "unit": "%"}]}, {"sequence": "TGTAAGAGTCAGTATC (sugars k3 d10 k3, PS)", "values": [{"measurement": "target mRNA inhibition", "setting": "1 µM", "value": 43, "unit": "%"}]}, {"sequence": "TGTACAAATTTATGCC (sugars k3 d10 k3, PS)", "values": [{"measurement": "target mRNA inhibition", "setting": "1 µM", "value": 67, "unit": "%"}]}, {"sequence": "TGTAGTGGGAGTCGGA (sugars k3 d10 k3, PS)", "values": [{"measurement": "target mRNA inhibition", "setting": "1 µM", "value": 62, "unit": "%"}]}, {"sequence": "TGTAGTGGGAGTCGGA (sugars kkdddddddddkekek, PS)", "values": [{"measurement": "target mRNA inhibition", "setting": "1 µM", "value": 27, "unit": "%"}]}, {"sequence": "TGTATAGCTGCATTTC (sugars k3 d10 k3, PS)", "values": [{"measurement": "target mRNA inhibition", "setting": "1 µM", "value": 37, "unit": "%"}]}, {"sequence": "TGTATTAAGACAGTTG (sugars k3 d10 k3, PS)", "values": [{"measurement": "target mRNA inhibition", "setting": "1 µM", "value": 34, "unit": "%"}]}, {"sequence": "TGTCATAAAAATCGCT (sugars k3 d10 k3, PS)", "values": [{"measurement": "target mRNA inhibition", "setting": "1 µM", "value": 57, "unit": "%"}]}, {"sequence": "TGTCCACCTTTAAATG (sugars k3 d9 k3 e1, PS)", "values": [{"measurement": "target mRNA inhibition", "setting": "1 µM", "value": 28, "unit": "%"}]}, {"sequence": "TGTCCAGGTTGAGATA (sugars k3 d1 m1 d8 k3, PS)", "values": [{"measurement": "target mRNA inhibition", "setting": "1 µM", "value": 41, "unit": "%"}]}, {"sequence": "TGTCCAGGTTGAGATA (sugars kkdddddddddkekek, PS)", "values": [{"measurement": "target mRNA inhibition", "setting": "1 µM", "value": 48, "unit": "%"}]}, {"sequence": "TGTGATTGAGTTCTCC (sugars k3 d1 m1 d8 k3, PS)", "values": [{"measurement": "target mRNA inhibition", "setting": "1 µM", "value": 34, "unit": "%"}]}, {"sequence": "TGTGTTCTTGTTGATA (sugars k3 d9 k3 e1, PS)", "values": [{"measurement": "target mRNA inhibition", "setting": "1 µM", "value": 65, "unit": "%"}]}, {"sequence": "TGTTATCTCAAGTCAG (sugars k3 d10 k3, PS)", "values": [{"measurement": "target mRNA inhibition", "setting": "0.02 µM", "value": 0, "unit": "%"}, {"measurement": "target mRNA inhibition", "setting": "0.078 µM", "value": 0, "unit": "%"}, {"measurement": "target mRNA inhibition", "setting": "0.313 µM", "value": 31, "unit": "%"}, {"measurement": "target mRNA inhibition", "setting": "1 µM", "value": 81, "unit": "%"}, {"measurement": "target mRNA inhibition", "setting": "1.25 µM", "value": 54, "unit": "%"}, {"measurement": "target mRNA inhibition", "setting": "5 µM", "value": 81, "unit": "%"}]}, {"sequence": "TGTTTTAGTATTTGGG (sugars k3 d10 k3, PS)", "values": [{"measurement": "target mRNA inhibition", "setting": "1 µM", "value": 48, "unit": "%"}]}, {"sequence": "TTAAACCTTCCCTGTG (sugars kkdddddddddkekek, PS)", "values": [{"measurement": "target mRNA inhibition", "setting": "1 µM", "value": 0, "unit": "%"}]}, {"sequence": "TTAAGATACCCAGGTT (sugars k3 d9 k3 e1, PS)", "values": [{"measurement": "target mRNA inhibition", "setting": "1 µM", "value": 51, "unit": "%"}]}, {"sequence": "TTAAGATACCCAGGTT (sugars kkdddddddddkekek, PS)", "values": [{"measurement": "target mRNA inhibition", "setting": "1 µM", "value": 48, "unit": "%"}]}, {"sequence": "TTAAGGATCATTGCAG (sugars k3 d10 k3, PS)", "values": [{"measurement": "target mRNA inhibition", "setting": "1 µM", "value": 14, "unit": "%"}]}, {"sequence": "TTAATACGACTTCCTT (sugars k3 d10 k3, PS)", "values": [{"measurement": "target mRNA inhibition", "setting": "1 µM", "value": 35, "unit": "%"}]}, {"sequence": "TTAATGCCACCCTACC (sugars kkdddddddddkekek, PS)", "values": [{"measurement": "target mRNA inhibition", "setting": "1 µM", "value": 11, "unit": "%"}]}, {"sequence": "TTAATTTTCGGGTTCT (sugars k3 d10 k3, PS)", "values": [{"measurement": "target mRNA inhibition", "setting": "1 µM", "value": 31, "unit": "%"}]}, {"sequence": "TTACAGCATCAAGACA (sugars k3 d9 k3 e1, PS)", "values": [{"measurement": "target mRNA inhibition", "setting": "1 µM", "value": 44, "unit": "%"}]}, {"sequence": "TTACAGCATCAAGACA (sugars k3 d10 k3, PS)", "values": [{"measurement": "target mRNA inhibition", "setting": "1 µM", "value": 46, "unit": "%"}]}, {"sequence": "TTAGAAACTGCTCCTC (sugars k3 d10 k3, PS)", "values": [{"measurement": "target mRNA inhibition", "setting": "1 µM", "value": 48, "unit": "%"}]}, {"sequence": "TTAGAATACGCTGAGA (sugars k3 d10 k3, PS)", "values": [{"measurement": "target mRNA inhibition", "setting": "1 µM", "value": 48, "unit": "%"}]}, {"sequence": "TTAGAGTGCTTAGTTC (sugars k3 d10 k3, PS)", "values": [{"measurement": "target mRNA inhibition", "setting": "1 µM", "value": 58, "unit": "%"}]}, {"sequence": "TTAGGGAGGTAGCTTT (sugars k3 d10 k3, PS)", "values": [{"measurement": "target mRNA inhibition", "setting": "1 µM", "value": 54, "unit": "%"}]}, {"sequence": "TTAGTACCAAGACACT (sugars k3 d10 k3, PS)", "values": [{"measurement": "target mRNA inhibition", "setting": "1 µM", "value": 41, "unit": "%"}]}, {"sequence": "TTAGTATTTGGGTGTT (sugars k3 d10 k3, PS)", "values": [{"measurement": "target mRNA inhibition", "setting": "1 µM", "value": 29, "unit": "%"}]}, {"sequence": "TTAGTTAGAATAGTCT (sugars k3 d10 k3, PS)", "values": [{"measurement": "target mRNA inhibition", "setting": "1 µM", "value": 8, "unit": "%"}]}, {"sequence": "TTATAACTACAAGAGG (sugars kkdddddddddkekek, PS)", "values": [{"measurement": "target mRNA inhibition", "setting": "1 µM", "value": 55, "unit": "%"}]}, {"sequence": "TTATAACTGAGCTAGA (sugars k3 d10 k3, PS)", "values": [{"measurement": "target mRNA inhibition", "setting": "1 µM", "value": 8, "unit": "%"}]}, {"sequence": "TTATACTTTTCCGTCT (sugars k3 d10 k3, PS)", "values": [{"measurement": "target mRNA inhibition", "setting": "1 µM", "value": 61, "unit": "%"}]}, {"sequence": "TTATATGAGGTCTGTA (sugars k3 d10 k3, PS)", "values": [{"measurement": "target mRNA inhibition", "setting": "1 µM", "value": 32, "unit": "%"}]}, {"sequence": "TTATGAAGTTAGTATA (sugars k3 d10 k3, PS)", "values": [{"measurement": "target mRNA inhibition", "setting": "1 µM", "value": 31, "unit": "%"}]}, {"sequence": "TTATGTACCAAACTTG (sugars k3 d10 k3, PS)", "values": [{"measurement": "target mRNA inhibition", "setting": "1 µM", "value": 53, "unit": "%"}]}, {"sequence": "TTATGTGATTGAGTTC (sugars kkdddddddddkekek, PS)", "values": [{"measurement": "target mRNA inhibition", "setting": "1 µM", "value": 21, "unit": "%"}]}, {"sequence": "TTATTGGTAAGTATTC (sugars k3 d10 k3, PS)", "values": [{"measurement": "target mRNA inhibition", "setting": "1 µM", "value": 17, "unit": "%"}]}, {"sequence": "TTCACCACGATTGTTA (sugars k3 d10 k3, PS)", "values": [{"measurement": "target mRNA inhibition", "setting": "1 µM", "value": 40, "unit": "%"}]}, {"sequence": "TTCATAGGGAGACCAT (sugars k3 d10 k3, PS)", "values": [{"measurement": "target mRNA inhibition", "setting": "1 µM", "value": 65, "unit": "%"}]}, {"sequence": "TTCATTCGAATTTCTT (sugars k3 d10 k3, PS)", "values": [{"measurement": "target mRNA inhibition", "setting": "0.02 µM", "value": 12, "unit": "%"}, {"measurement": "target mRNA inhibition", "setting": "0.078 µM", "value": 10, "unit": "%"}, {"measurement": "target mRNA inhibition", "setting": "0.313 µM", "value": 43, "unit": "%"}, {"measurement": "target mRNA inhibition", "setting": "1 µM", "value": 71, "unit": "%"}, {"measurement": "target mRNA inhibition", "setting": "1.25 µM", "value": 78, "unit": "%"}, {"measurement": "target mRNA inhibition", "setting": "5 µM", "value": 89, "unit": "%"}]}, {"sequence": "TTCCAAATCAGGTAGT (sugars k3 d10 k3, PS)", "values": [{"measurement": "target mRNA inhibition", "setting": "1 µM", "value": 12, "unit": "%"}]}, {"sequence": "TTCCATCTATCAGACT (sugars k3 d10 k3, PS)", "values": [{"measurement": "target mRNA inhibition", "setting": "1 µM", "value": 33, "unit": "%"}]}, {"sequence": "TTCCATCTATCAGACT (sugars kkdddddddddkekek, PS)", "values": [{"measurement": "target mRNA inhibition", "setting": "1 µM", "value": 33, "unit": "%"}]}]}
